Legend:
[1] = system: DIGSA; experiment: Post-emergence herbicidal action against DIGSA; type: in vivo, Digitaria sanguinalis; details: 80 g/ha, visual assessment about 3 weeks after treatment vs untreated controls
In short: (§1)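 Weeds and crops grown in sandy loam in the greenhouse, treated post-emergence at the one-leaf stage (2–3 weeks after sowing). WP or EC formulations sprayed as aqueous suspension/emulsion at 600–800 l/ha water with 0.2% wetting agent. Visual % activity scored after about 3 weeks versus untreated controls (100% = dead, 0% = like control).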

[2] = system: ECHCG; experiment: Pre-emergence herbicidal action against ECHCG; type: in vivo, Echinochloa crus-galli; details: 320 g/ha, scored visually after 3 weeks vs untreated controls
In short: (§2)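 Visual percent damage, rated 3 weeks after treatment against untreated plants (0% like control, 100% plants dead). Compounds, as wettable powders or emulsion concentrates, were sprayed pre-emergence onto soil covering seeds sown in sandy loam, at 600 to 800 L/ha water with 0.2% wetting agent; pots kept in greenhouse.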

[3] = system: DIGSA; experiment: Pre-emergence herbicidal action against DIGSA; type: in vivo, Digitaria sanguinalis; details: 320 g/ha, scored visually after 3 weeks vs untreated controls
In short: as §2

[4] = system: LOLRI; experiment: Post-emergence herbicidal action against LOLRI; type: in vivo, Lolium rigidum; details: 80 g/ha, visual assessment about 3 weeks after treatment vs untreated controls
In short: as §1

[5] = system: AVEFA; experiment: Pre-emergence herbicidal action against AVEFA; type: in vivo, Avena fatua; details: 320 g/ha, scored visually after 3 weeks vs untreated controls
In short: as §2

[6] = system: ALOMY; experiment: Post-emergence herbicidal action against ALOMY; type: in vivo, Alopecurus myosuroides; details: 80 g/ha, visual assessment after about 3 weeks
In short: as §1

[7] = system: SETVI; experiment: Post-emergence herbicidal action against SETVI; type: in vivo, Setaria viridis; details: 80 g/ha, visual assessment about 3 weeks after treatment vs untreated controls
In short: as §1

[8] = system: ALOMY; experiment: Pre-emergence herbicidal action against ALOMY; type: in vivo, Alopecurus myosuroides; details: 320 g/ha, scored visually after 3 weeks vs untreated controls
In short: as §2

[9] = system: SETVI; experiment: Pre-emergence herbicidal action against SETVI; type: in vivo, Setaria viridis; details: 320 g/ha, scored visually after 3 weeks vs untreated controls
In short: as §2

[10] = system: ECHCG; experiment: Post-emergence herbicidal action against ECHCG; type: in vivo, Echinochloa crus-galli; details: 80 g/ha, visual assessment about 3 weeks after treatment vs untreated controls
In short: as §1

[11] = system: MATIN; experiment: Pre-emergence herbicidal action against MATIN; type: in vivo; details: 320 g/ha
Excerpt: (§3) Seeds of monocotyledonous and dicotyledonous weed plants and crop plants are laid out in sandy loam soil in wood-fiber pots and covered with soil. The compounds of the invention, formulated in the form of wettable powders (WP) or as emulsion concentrates (EC), are then applied to the surface of the covering soil as aqueous suspension or emulsion at a water application rate equating to 600 to 800 L/ha with addition of 0.2% wetting agent.
(§4) After the treatment, the pots are placed in a greenhouse and kept under good growth conditions for the trial plants. The damage to the test plants is scored visually after a test period of 3 weeks by comparison with untreated controls (herbicidal activity in percent (%): 100% activity=the plants have died, 0% activity=like control plants).

[12] = system: LOLRI; experiment: Pre-emergence herbicidal action against LOLRI (Table 8, titled post-emergence at 320 g/ha); type: in vivo, Lolium rigidum; details: table stands in the pre-emergence section
In short: as §2

[13] = system: VIOTR; experiment: Pre-emergence herbicidal action against VIOTR; type: in vivo, Viola tricolor; details: 320 g/ha
In short: as §2

[14] = system: AMARE; experiment: Pre-emergence herbicidal action against AMARE; type: in vivo, Amaranthus retroflexus; details: 320 g/ha
Excerpt: as §3, §4

[15] = system: AVEFA; experiment: Post-emergence herbicidal action against AVEFA; type: in vivo, Avena fatua; details: 80 g/ha, visual assessment after about 3 weeks
In short: as §1

[16] = system: VERPE; experiment: Pre-emergence herbicidal action against VERPE; type: in vivo, Veronica persica; details: 320 g/ha
Excerpt: as §3, §4

SMILES	Post-emergence action against DIGSA in % [1]	Pre-emergence action against ECHCG in % [2]	Pre-emergence action against DIGSA in % [3]	Post-emergence action against LOLRI in % [4]	Pre-emergence action against AVEFA in % [5]	Post-emergence action against ALOMY in % [6]	Post-emergence action against SETVI in % [7]	Pre-emergence action against ALOMY in % [8]	Pre-emergence action against SETVI in % [9]	Post-emergence action against ECHCG in % [10]	Pre-emergence action against MATIN in % [11]	Pre-emergence herbicidal action against LOLRI in % [12]	Pre-emergence action against VIOTR in % [13]	Pre-emergence action against AMARE in % [14]	Post-emergence action against AVEFA in % [15]	Pre-emergence action against VERPE in % [16]
C=CCOCC1CCC2(C1)NC(=O)C(c1c(C)cc(C#CC)cc1Br)=C2O (stereo not shown) [Example I-67]	90%	100%	100%	90%	80%	100%	90%	100%	100%	90%	80%	100%	100%			
C#CCOCC1CCC2(C1)NC(=O)C(c1c(C)cc(C#CC)cc1OC)=C2O (stereo not shown) [Example I-77]	90%	100%	100%	90%	100%	100%	100%	100%	100%	100%	80%	100%		100%	90%	
CC#Cc1cc(F)c(C2=C(OC(=O)OCC)C3(CCC(COCCC)C3)NC2=O)c(OC)c1 (stereo not shown) [Example P-84]	90%	100%	100%	80%	80%		100%	100%	100%	100%	80%	100%	80%		80%	
CC#Cc1cc(C)c(C2=C(OC(=O)OCC)C3(CCC(COCCOC)C3)NC2=O)c(OC)c1 (stereo not shown) [Example P-79]	90%	100%	100%	90%	100%	100%	100%	100%	100%	100%		100%	100%	80%	90%	90%
CC#Cc1cc(C)c(C2=C(OC(=O)C(C)C)C3(CCC(COCC)C3)NC2=O)c(Br)c1 (stereo not shown) [Example P-37]	100%	100%	100%	100%	80%	100%	100%	100%	100%	100%		100%	100%	100%	90%	80%
